Measured values from patent publication US20180353489A1, “Antibacterial Pharmaceutical Combination and Method for Treating Gram-Negative Bacteria Infections” (TENNOR THERAPEUTICS (SUZHOU) LIMITED, priority 2016, published 2018).
Like-named read-outs stand apart in the source and are kept apart here.

What was measured:
[1] = test system: Escherichia coli ATCC 25922; experiment: Checkerboard broth microdilution MIC test; assay type: cell-based
Source text: (§1) A standard 96-well plate checkerboard test platform for the determination of Minimum Inhibitory Concentration (MIC) and Minimum Bactericidal Concentration (MBC) as endpoints is used for the test of the antibacterial activity of the pharmaceutical combination in vitro. Escherichia coli ATCC 25922 strain is used as the representative strain of Gram-negative bacteria in initial investigations. The correlation between the observed results and the major Gram-negative bacteria in hospital—Pseudomonas aeruginosa, Klebsiella pneumoniae, Acinetobacter baumannii and Stenotrophomonas maltophilia—is assessed by a similar method.
Escherichia coli ATCC 25922 is a quality control strain for MIC testing as recommended by the Clinical and Laboratory Standards Institute (CLSI), which was obtained originally from the American Type Culture Collection (ATCC) repository and was used as a model of Gram-negative pathogen described herein. Other Gram-negative bacteria strains, including two strains of Pseudomonas aeruginosa, two strains of Klebsiella pneumoniae, Acinetobacter baumannii and Stenotrophomonas maltophilia, were also obtained from ATCC.
Minimum inhibitory concentration (MIC) endpoints of the combination of TNP-2092 and polymyxin B or E were determined by the two-agent checkerboard assay method based on the CLSI broth microdilution susceptibility method. To obtain a 96-well plate for each pharmaceutical combination, two separate intermediate dilution plates were prepared as described. A sufficient volume of a standard cell inoculum of ˜5×10^5 CFU/mL was prepared in cation adjusted Mueller Hinton broth with 0.002% (vol:vol) polysorbate-80 using the direct colony suspension method. […] The “destination MIC test plates” were then incubated statically at 35° C. for 18-24 h and the MIC of each agent alone or in combination was read visually.
(§2) In vitro fractional inhibitory concentration (FIC) was calculated using the following formula: […]

[2] = test system: Escherichia coli ATCC 25922; experiment: Checkerboard MBC test; assay type: cell-based; settings: for MBC99.9/MIC / MBC99.9: used separately
Source text: as §1
Minimum inhibitory concentration (MIC) endpoints of the combination of TNP-2092 and polymyxin B or E were determined by the two-agent checkerboard assay method based on the CLSI broth microdilution susceptibility method. To obtain a 96-well plate for each pharmaceutical combination, two separate intermediate dilution plates were prepared as described. A sufficient volume of a standard cell inoculum of ˜5×10^5 CFU/mL was prepared in cation adjusted Mueller Hinton broth with 0.002% (vol:vol) polysorbate-80 using the direct colony suspension method. 0.2 mL of the above suspension was added to the wells in the first column of a first 96-well plate (ID-1), and 0.1 mL of the suspension was added to all remaining wells. 0.2 mL of the same cell inoculum suspension was added to the wells in the first row of a second plate (ID-2), and 0.1 mL of suspension was added to all the remaining wells. An appropriately concentrated drug stock “compound-1” (representing one of the two drugs to be tested in the combination) was added to each well in the first column of the plate ID-1. This was then diluted serially two-fold across the plate, changing tips at each transfer, until column 11 was reached. From column 11, 0.1 mL was removed and discarded and column 12 contains only cell inoculum and no drug. Next, an appropriately concentrated drug stock “Compound 2” (representing the second of the two agents to be tested in the combination) was then diluted into each well of row 1 in plate ID2. This was then diluted serially two-fold down the plate, changing tips at each transfer, until row 7 was reached. 0.1 mL was removed from row 7 and discarded and row 8 contains only cell inoculum and no drug. Finally, 0.05 mL was transferred from both ID1 and ID2 into a third 96 well “destination MIC test plate” (see FIG. 1). […] Column 12 is used to call the MIC of compound 2 alone and row 8 is used to call the MIC of compound 1 when tested alone. Note that the intersection of row 8 and column 12 contains no drug and serves as the growth control. The “destination MIC test plates” were then incubated statically at 35° C. for 18-24 h and the MIC of each agent alone or in combination was read visually.
For minimum bactericidal concentration (MBC) endpoints, 0.008 mL portions of each well, after MICs were called, were transferred from the MIC test plates by an automatic sampler to a charcoal agar omni recipient plate. Drops were allowed to air dry in a biological cabinet and the plates incubated inverted for 18-24 h a 35° C. The MBC was scored as the lowest consecutive antimicrobial drug concentration required to kill ≥99.9% of viable input test organisms in 18-24 h, or ≤5 CFU remaining per 0.008 mL drop
as §2
FIC (Fractional inhibitory concentration) or FBC (fractional bactericidal concentration) results were interpreted as synergistic, additive, indifferent, or antagonistic. In cases where no endpoint was observed and the MIC/MBC could not be called, then for the purpose of algebraic calculations, the endpoint was arbitrarily assumed to be one dilution greater than the tested range

Molecule	MIC ([1]; ATCC25922, used separately, read-out: MIC)	MBC ([2]; ATCC25922, used separately, read-out: MBC99.9)	MBC99.9/MIC [2]	MIC ([1]; used separately)	MBC99.9 [2]
CO[C@H]1/C=C/O[C@@]2(C)Oc3c(C)c(O)c4c(O)c(c(/C=N/N5CCC(N(C)C6([C@@H]7CCN(c8c(F)cn9c(=O)c(C(=O)O)cc(C%10CC%10)c9c8C)C7)CC6)CC5)c(O)c4c3C2=O)NC(=O)/C(C)=C\C=C\[C@H](C)[C@H](O)[C@@H](C)[C@@H](O)[C@@H](C)[C@H](OC(C)=O)[C@@H]1C [TNP-2092]	0.25 µg/mL	0.25 µg/mL	1	–	–
polymyxin B	–	–	4	2 µg/mL	8 µg/mL
polymyxin E	–	–	8	1 µg/mL	8 µg/mL
